Source: US4786755A, “Diphenic acid monoamides” (Warner-Lambert Company, priority 1986, dated 1988)
pIC50: −log10 of the molar value.

Experiments:
[1] = molecular target: T1, human leukocyte 5-lipoxygenase (Homo sapiens, UniProt P09917); assay: 5-Lipoxygenase Inhibitor in Human Leukocytes (5LOA1); type: cell-based; details: 100 μM exogenous arachidonic acid; read-out: IC50 5LOA (100)*
T1 construct: endogenous in cells; host or cells: leukocytes from fresh blood of normal adult men
T1 sequence (P09917 1-674): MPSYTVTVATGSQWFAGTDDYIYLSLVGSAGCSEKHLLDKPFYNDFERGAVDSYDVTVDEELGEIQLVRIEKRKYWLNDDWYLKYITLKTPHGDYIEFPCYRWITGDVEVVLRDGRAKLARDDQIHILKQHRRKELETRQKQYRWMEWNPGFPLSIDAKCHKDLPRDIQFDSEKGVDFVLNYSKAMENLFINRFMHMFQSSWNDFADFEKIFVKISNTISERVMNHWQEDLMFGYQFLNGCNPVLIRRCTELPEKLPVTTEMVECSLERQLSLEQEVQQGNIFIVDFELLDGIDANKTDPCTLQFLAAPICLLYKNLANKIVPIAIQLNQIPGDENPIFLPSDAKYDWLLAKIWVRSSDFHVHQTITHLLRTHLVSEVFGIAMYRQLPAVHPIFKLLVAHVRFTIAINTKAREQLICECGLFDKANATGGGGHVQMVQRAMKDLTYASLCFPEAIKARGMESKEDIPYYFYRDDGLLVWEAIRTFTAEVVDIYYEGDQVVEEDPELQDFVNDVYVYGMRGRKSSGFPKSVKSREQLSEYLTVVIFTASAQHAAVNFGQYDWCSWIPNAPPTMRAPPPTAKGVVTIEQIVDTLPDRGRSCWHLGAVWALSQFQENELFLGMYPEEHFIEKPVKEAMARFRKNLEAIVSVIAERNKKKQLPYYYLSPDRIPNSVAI
From the text: To Evaluate the Effect of Each Compounds as a 5-Lipoxygenase Inhibitor in Comparison to Standard Reference Agents in Human Leukocytes (5LOA1)
The purpose of this assay is to evaluate the activity of each compound as an inhibitor of human leukocyte 5-lipoxygenase.
Arachidonic acid and calcium ionophore A23187 are obtained from Sigma (St. Louis, MO). Silica gel plates, GF are obtained from Analtech (Newark, DE). Arachidonic acid, (1-^14 C) and 5-HETE (^3 H), 5 (S)-hydroxy-6-trans,8,11,14-cis eicosatetraenoic acid, are obtained from New England Nuclear (Boston, MA). Six percent Dextran-70 in 0.9% NaCl is obtained from Cutter Labs (Berkeley, CA).
Preparation of Leukocytes
Fresh blood from normal adult men who had not received any drugs for at least the previous five days is obtained by the Community Research Clinic (WL/PD) using venipuncture and collected into heparinized vacuotainer tubes. To every 100 ml of pooled blood is added 25 ml of dextran solution (6% dextran -70 in 0.9% sodium chloride containing 3% dextrose) and this is mixed gently in a plastic cylinder. The mixture is left to stand at room temperature for at least 90 minutes. The upper layer which is rich in leukocytes and platelets is then carefully decanted into 50 ml plastic tubes and centrifuged at about 100×g for eight minutes in an IEC centrifuge and rotor number 269 (about 600 rpm). The supernatant fluid is discarded and the pellet is resuspended in 10 ml of 0.87% ammonium chloride for exactly two minutes. This procedure is to lyse completely contaminating red blood cells. Leukocytes are then separated by centrifugation for ten minutes. The pellet is washed three times by suspension in 20 ml PBS (sodium chloride, 7.1 g; Na2 HPO4, 1.15 g; KH2 PO4, 0.2 g, and KCl, 0.2 g/L) and centrifuged as before. The final pellet is suspended in PBS containing 0.87 mM CaCl2. Viability of the cells is then checked using trypan blue exclusion method and is found to be over 90%.
5-Lipoxygenase Enzyme Assay
Cells in suspension (0.98 ml) are incubated with or without test compounds for five minutes at 37° C. in a shaking water bath. At this time a 17 μl mixture is prepared per 1 ml of cell suspension: 100 mM arachidonic acid, 1 μl, 0.05 μCi ^14 C-arachidonic acid in 5 μl; 1 mM calcium ionophore A23187, 10 μl (1). This mixture is added and the incubation continued for five minutes. The reaction is stopped by adding four volumes of absolute ethanol and the mixture is kept in ice for 30 minutes. The floculated precipitate is separated by centrifugation at about 37,000×g for 20 minutes (Beckman Instruments rotor number 40). The alcohol extract is taken to dryness under a stream of nitrogen and the residue is dissolved in 100-200 μl absolute ethanol. At the time any turbidity is removed by centrifugation. An aliquot (25-50 μl) is applied onto 20×20 cm silica gel TLC plate and developed using the following solvent system: diethyl ether, petroleum ether (20°-40° C.), acetic acid (50:50:1 v/v). Zones of 1 cm apart are scraped from the TLC plate and transferred to mini-vials. Methanol (0.5 ml) is added to dissolve the radioactivity adsorbed to the silica gel and scintillation fluid (H.P., Beckman), 5 ml is then added and vials are counted in a liquid scintillation counter. A sample of ^3 H-5-HETE is applied and used for the identification of the formed 5-HETE.
Total radioactivity in the test as well as the control samples are normalized and the amount of 5-HETE present is calculated accordingly.
IC50 values are defined as the concentrations of test agents which caused a 50% inhibition of the formation of 5-HETE as compared to control and are determined by inspection of the concentration-response curves.

[2] = tested on: Isolated Guinea Pig Lung Parenchyma; assay: Smooth Muscle Receptor Agonism-Antagonism Activity Evaluations In Vitro (IVAS), LTC4-induced contraction; type: cell-based; details: Cavia porcellus, LTC4-induced contraction
From the text: Smooth Muscle Receptor Agonism-Antagonism Activity Evaluations In Vitro (IVAS) Isolated Guinea Pig Lung Parenchyma
The potency of a test compound for receptor stimulation or antagonism, for example, can easily be determined since the concentration of the compound to which the muscle cell, or specialized responsive area on this cell, is exposed can be easily controlled and correlated with the recorded activity of muscle contraction or relaxation.
The procedures described herein are specifically concerned with the definition of a test drug action on isolated lung strips. Drug action is characterized either by an action per se on the tissues or by interaction with known smooth muscle receptor stimulants or antagonists.
Usually, the tests will be used to evaluate the ability of a test compound to antagonize the contraction induced by standard agonists in this case LTC4. A relative potency is derived by comparison with one of the standard blocking drugs. In caution, relative potencies of test compounds to known standards are valid only if full dose response curves are generated and the compound compared generate parallel dose/response curves with common maxima. Appropriate "within-trial" comparisons are also necessary.
Molecular antagonists compete with the agonist for the receptor. […] A physiological antagonist produces a response by action on a different receptor that causes an effect in opposition to the agonism.
A permanent isolated bath system is used which facilitates the vertical suspension of a segment of tissue in a small volume of a specific nutritive buffer. Frittered glass terminals provide dispersed bubbles of 95% oxygen and 5% carbon dioxide at the base of the individual tissue baths and the buffer reservoir. All baths and the reservoir are double-jacketed and water at 37° C. is circulated through the jacket of the baths to provide stable temperature regulation. The baths are arranged so that fresh solution from the reservoir passes through a jacketed glass coil to the base of the bath. The bubbling gas stirs the bath solution. During equilibration, fresh solution enters and excess solution is allowed to overflow. Unless a particular drug is required throughout the experiment and it is incorporated in the buffer, individual drugs are introduced directly into the bath by long hypodermic needles to the base of the bath without disturbing the tissue. Drugs are removed by rapidly draining the tissue bath from the bottom and refilling. Tissues are washed a minimum of six times. The emptying and refilling sequence takes only five seconds.
The contraction and relaxation of the smooth muscle preparation can be recorded either isotonically (change in length) or isometrically (change in tension). Isometric transducers are more sensitive and proportional. Isometric contractions are recorded electronically using Grass FT 0.03C force displacement transducers and Beckman Dynagraph recorders. The tissue is suspended vertically with one end of the segment anchored to the bottom of the bath and the other end attached to the mechanical electrical transducer muscle level. The electrical output of this transducer moves a pen on a moving chart in proportion to the force displacement.
Lung tissue is obtained from normal male guinea pigs. The heart and lungs are removed as a unit, placed in buffer, and the lungs are perfused with buffer by the spontaneously beating heart for several minutes.

| pIC50 [1] | pIC50 [2] | Structure (SMILES) | inhibition at 3 µM ([2]; @ 3 μM) [%] |
| --- | --- | --- | --- |
| 5.34 | 6.00 | O=C(O)c1ccccc1-c1ccccc1C(=O)Nc1ccc(CCc2ccc(Cl)c(Cl)c2)cc1 [Example 3, [1,1'-Biphenyl]-2-carboxylic acid, 2'-[[[4-[2-(3,4-dichlorophenyl)ethyl]phenyl]amino]carbonyl]-] |  |
| 5.03 |  | O=C(O)c1ccccc1-c1ccccc1C(=O)Nc1cccc(CCc2ccc(Cl)c(Cl)c2)c1 [Example 4, [1,1'-Biphenyl]-2-carboxylic acid, 2'-[[[3-[2-(3,4-dichlorophenyl)ethyl]phenyl]amino]carbonyl]-] |  |
| 4.40 |  | CN(C(=O)c1ccccc1-c1ccccc1C(=O)O)c1ccc(CCc2ccc(Cl)c(Cl)c2)cc1 [Example 5, [1,1'-Biphenyl]-2-carboxylic acid, 2'-[[[4-[2-(3,4-dichlorophenyl)ethyl]phenyl]methylamino]carbonyl]-] |  |
| 5.02 |  | O=C(O)c1ccccc1-c1ccccc1C(=O)Nc1ccc(CCCc2ccc(Cl)c(Cl)c2)cc1 [Example 1, [1,1'-Biphenyl]-2-carboxylic acid, 2'-[[[4-[3-(3,4-dichlorophenyl)propyl]phenyl]amino]carbonyl]-] | 90 |
| < 4.70 |  | CN(C(=O)c1ccccc1-c1ccccc1C(=O)O)c1ccc(CCc2ccc(Cl)cc2)cc1 [Example 8] |  |
| < 4.70 |  | COc1ccc(CCc2ccc(NC(=O)c3ccccc3-c3ccccc3C(=O)O)cc2)cc1OC [Example 7, [1,1'-Biphenyl]-2-carboxylic acid, 2'-[[[4-[2-(3,4-dimethoxyphenyl)ethyl]phenyl]amino]carbonyl]-] |  |
| 4.92 |  | O=C(O)c1ccccc1-c1ccccc1C(=O)Nc1ccc(CCc2ccc(Cl)cc2)cc1 [Example 11, [1,1'-Biphenyl]-2-carboxylic acid, 2'-[[4-[2-[(4-chlorophenyl)ethyl]phenyl]amino]carbonyl]-] |  |
